Measured values reported in ChEMBL document CHEMBL4507280 (2021).
The source made the active and inactive calls. No cut-off for these calls is given here.

How the values were obtained:
[1] = target: T1, Fatty acid synthase (Homo sapiens, UniProt P49327); assay: Inhibition of [14C]acetate incorporation into human H1975 cells; assay type: cell-based, NCI-H1975
[2] = target: Adenosine receptor A1 (Homo sapiens) (UniProt P30542); assay: A1/HU Eurofins-Panlabs selectivity data (BI); conditions: Compound concentration 10.0 uM
[3] = target: Adenosine receptor A2a (Homo sapiens) (UniProt P29274); assay: A2A/HU Eurofins-Panlabs selectivity data (BI); conditions: Compound concentration 10.0 uM
[4] = target: T2, Alpha-1A adrenergic receptor (Homo sapiens) (UniProt P35348); assay: ALPHA1A/R Eurofins-Panlabs selectivity data (BI); conditions: Rattus norvegicus; Compound concentration 10.0 uM
T2 sequence (whole entry): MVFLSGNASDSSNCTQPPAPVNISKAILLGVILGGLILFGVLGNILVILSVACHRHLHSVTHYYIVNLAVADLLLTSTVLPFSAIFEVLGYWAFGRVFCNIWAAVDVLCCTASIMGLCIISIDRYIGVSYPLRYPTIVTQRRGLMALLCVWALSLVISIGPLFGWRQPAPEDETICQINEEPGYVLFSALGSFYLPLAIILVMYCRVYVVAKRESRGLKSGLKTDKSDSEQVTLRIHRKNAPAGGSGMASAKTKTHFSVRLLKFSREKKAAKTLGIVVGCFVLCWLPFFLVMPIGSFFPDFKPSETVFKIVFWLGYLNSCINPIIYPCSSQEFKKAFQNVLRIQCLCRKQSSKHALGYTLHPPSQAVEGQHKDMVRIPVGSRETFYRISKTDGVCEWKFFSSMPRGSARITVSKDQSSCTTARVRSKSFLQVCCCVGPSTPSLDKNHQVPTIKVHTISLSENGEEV

[5] = target: T3, Alpha-1B adrenergic receptor (Homo sapiens) (UniProt P35368); assay: ALPHA1B/R Eurofins-Panlabs selectivity data (BI); conditions: Rattus norvegicus; Compound concentration 10.0 uM
T3 sequence (whole entry): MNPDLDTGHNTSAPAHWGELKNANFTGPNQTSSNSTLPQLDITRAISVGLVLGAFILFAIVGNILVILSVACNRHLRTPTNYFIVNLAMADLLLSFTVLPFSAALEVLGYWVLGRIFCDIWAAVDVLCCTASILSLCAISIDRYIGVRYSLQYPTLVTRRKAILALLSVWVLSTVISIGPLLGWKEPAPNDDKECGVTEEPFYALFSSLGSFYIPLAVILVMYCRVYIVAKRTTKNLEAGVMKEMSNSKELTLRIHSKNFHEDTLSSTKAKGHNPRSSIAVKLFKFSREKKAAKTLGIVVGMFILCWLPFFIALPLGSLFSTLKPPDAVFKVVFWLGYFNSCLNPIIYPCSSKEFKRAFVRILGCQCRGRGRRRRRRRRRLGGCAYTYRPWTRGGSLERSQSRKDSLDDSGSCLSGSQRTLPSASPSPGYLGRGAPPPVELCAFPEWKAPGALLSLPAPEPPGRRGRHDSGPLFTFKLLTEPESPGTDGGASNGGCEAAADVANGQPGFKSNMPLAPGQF

[6] = target: Beta-1 adrenergic receptor (Homo sapiens) (UniProt P08588); assay: BETA1/HU Eurofins-Panlabs selectivity data (BI); conditions: Compound concentration 10.0 uM
[7] = target: Beta-2 adrenergic receptor (Homo sapiens) (UniProt P07550); assay: BETA2/HU Eurofins-Panlabs selectivity data (BI); conditions: Compound concentration 10.0 uM
[8] = target: D(1A) dopamine receptor (Homo sapiens) (UniProt P21728); assay: D1/HU Eurofins-Panlabs selectivity data (BI); conditions: Compound concentration 10.0 uM
[9] = target: Prostaglandin E2 receptor EP4 subtype (Homo sapiens) (UniProt P35408); assay: EP4/H Eurofins-Panlabs selectivity data (BI); conditions: Compound concentration 10.0 uM
[10] = target: Gamma-aminobutyric acid receptor subunit alpha-1 (Rattus norvegicus) (UniProt P62813); assay: GABAA MUSCIMOL CENT Eurofins-Panlabs selectivity data (BI); conditions: Compound concentration 10.0 uM
[11] = target: Gamma-aminobutyric acid receptor subunit alpha-1 (Rattus norvegicus) (UniProt P62813); assay: GABAACENTR Eurofins-Panlabs selectivity data (BI); conditions: Compound concentration 10.0 uM
[12] = target: Histamine H1 receptor (Homo sapiens) (UniProt P35367); assay: H1/H Eurofins-Panlabs selectivity data (BI); conditions: Compound concentration 10.0 uM
[13] = target: T4, Muscarinic acetylcholine receptor M2 (Homo sapiens) (UniProt P08172); assay: M2/HU Eurofins-Panlabs selectivity data (BI); conditions: Compound concentration 10.0 uM
T4 sequence (whole entry): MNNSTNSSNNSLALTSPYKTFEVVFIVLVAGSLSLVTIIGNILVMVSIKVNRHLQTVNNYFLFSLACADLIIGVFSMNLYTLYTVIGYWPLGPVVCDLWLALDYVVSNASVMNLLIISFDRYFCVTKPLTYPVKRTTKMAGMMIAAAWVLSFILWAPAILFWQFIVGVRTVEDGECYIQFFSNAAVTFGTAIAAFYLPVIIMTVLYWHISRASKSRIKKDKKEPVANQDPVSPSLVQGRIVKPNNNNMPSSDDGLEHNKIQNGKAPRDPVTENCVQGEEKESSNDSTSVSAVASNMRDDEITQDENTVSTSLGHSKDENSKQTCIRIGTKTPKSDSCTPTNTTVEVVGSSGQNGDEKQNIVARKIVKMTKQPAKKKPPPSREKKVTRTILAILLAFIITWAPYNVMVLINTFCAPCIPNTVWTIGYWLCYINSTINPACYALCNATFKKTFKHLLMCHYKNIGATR

[14] = target: T5, Sigma intracellular receptor 2 (Homo sapiens, UniProt Q5BJF2); assay: SIGMA2/R Eurofins-Panlabs selectivity data (BI); conditions: Rattus norvegicus; Compound concentration 10.0 uM
[15] = target: 5-hydroxytryptamine receptor 1B (Homo sapiens) (UniProt P28222); conditions: Compound concentration 10.0 uM
[16] = target: 5-hydroxytryptamine receptor 7 (Homo sapiens) (UniProt P34969); conditions: Compound concentration 10.0 uM
[17] = target: Muscarinic acetylcholine receptor M1 (Homo sapiens) (UniProt P11229); conditions: Compound concentration 10.0 uM
[18] = target: Histamine H4 receptor (Homo sapiens, UniProt Q9H3N8); assay: GPCRScan assay: inhibition of H4; design: radioligand conc. used [nm] 1.0 – 5.0, parental cells HEK T
[19] = target: T5, Sigma intracellular receptor 2; assay: GPCRScan assay: inhibition of Sigma 2; design: radioligand conc. used [nm] 5.0, parental cells HEKT
[20] = target: T1, Fatty acid synthase; assay: Human FAS enzyme assay
[21] = system: Tyrosine-protein kinase ABL1 (Homo sapiens), P00519 [F317I]; conditions: Compound concentration 1000.0 nM
[22] = target: Activin receptor type-1B (Homo sapiens) (UniProt P36896); conditions: Compound concentration 1000.0 nM
[23] = target: Serine/threonine-protein kinase BRSK1 (Homo sapiens) (UniProt Q8TDC3); conditions: Compound concentration 1000.0 nM
[24] = target: Tyrosine-protein kinase Fgr (Homo sapiens) (UniProt P09769); conditions: Compound concentration 1000.0 nM
[25] = target: Glycogen synthase kinase-3 beta (Homo sapiens) (UniProt P49841); conditions: Compound concentration 1000.0 nM
[26] = target: Ribosomal protein S6 kinase alpha-5 (Homo sapiens) (UniProt O75582); conditions: Compound concentration 1000.0 nM
[27] = target: NUAK family SNF1-like kinase 2 (Homo sapiens) (UniProt Q9H093); conditions: Compound concentration 1000.0 nM
[28] = target: Delta-type opioid receptor (Homo sapiens) (UniProt P41143); conditions: Compound concentration 10.0 uM

T5 sequence (Q5BJF2 whole entry): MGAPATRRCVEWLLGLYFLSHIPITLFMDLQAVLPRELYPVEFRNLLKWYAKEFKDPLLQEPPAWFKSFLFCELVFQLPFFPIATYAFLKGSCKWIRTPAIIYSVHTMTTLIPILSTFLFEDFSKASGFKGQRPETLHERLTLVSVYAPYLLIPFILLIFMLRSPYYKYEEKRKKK
T1 sequence (P49327 whole entry): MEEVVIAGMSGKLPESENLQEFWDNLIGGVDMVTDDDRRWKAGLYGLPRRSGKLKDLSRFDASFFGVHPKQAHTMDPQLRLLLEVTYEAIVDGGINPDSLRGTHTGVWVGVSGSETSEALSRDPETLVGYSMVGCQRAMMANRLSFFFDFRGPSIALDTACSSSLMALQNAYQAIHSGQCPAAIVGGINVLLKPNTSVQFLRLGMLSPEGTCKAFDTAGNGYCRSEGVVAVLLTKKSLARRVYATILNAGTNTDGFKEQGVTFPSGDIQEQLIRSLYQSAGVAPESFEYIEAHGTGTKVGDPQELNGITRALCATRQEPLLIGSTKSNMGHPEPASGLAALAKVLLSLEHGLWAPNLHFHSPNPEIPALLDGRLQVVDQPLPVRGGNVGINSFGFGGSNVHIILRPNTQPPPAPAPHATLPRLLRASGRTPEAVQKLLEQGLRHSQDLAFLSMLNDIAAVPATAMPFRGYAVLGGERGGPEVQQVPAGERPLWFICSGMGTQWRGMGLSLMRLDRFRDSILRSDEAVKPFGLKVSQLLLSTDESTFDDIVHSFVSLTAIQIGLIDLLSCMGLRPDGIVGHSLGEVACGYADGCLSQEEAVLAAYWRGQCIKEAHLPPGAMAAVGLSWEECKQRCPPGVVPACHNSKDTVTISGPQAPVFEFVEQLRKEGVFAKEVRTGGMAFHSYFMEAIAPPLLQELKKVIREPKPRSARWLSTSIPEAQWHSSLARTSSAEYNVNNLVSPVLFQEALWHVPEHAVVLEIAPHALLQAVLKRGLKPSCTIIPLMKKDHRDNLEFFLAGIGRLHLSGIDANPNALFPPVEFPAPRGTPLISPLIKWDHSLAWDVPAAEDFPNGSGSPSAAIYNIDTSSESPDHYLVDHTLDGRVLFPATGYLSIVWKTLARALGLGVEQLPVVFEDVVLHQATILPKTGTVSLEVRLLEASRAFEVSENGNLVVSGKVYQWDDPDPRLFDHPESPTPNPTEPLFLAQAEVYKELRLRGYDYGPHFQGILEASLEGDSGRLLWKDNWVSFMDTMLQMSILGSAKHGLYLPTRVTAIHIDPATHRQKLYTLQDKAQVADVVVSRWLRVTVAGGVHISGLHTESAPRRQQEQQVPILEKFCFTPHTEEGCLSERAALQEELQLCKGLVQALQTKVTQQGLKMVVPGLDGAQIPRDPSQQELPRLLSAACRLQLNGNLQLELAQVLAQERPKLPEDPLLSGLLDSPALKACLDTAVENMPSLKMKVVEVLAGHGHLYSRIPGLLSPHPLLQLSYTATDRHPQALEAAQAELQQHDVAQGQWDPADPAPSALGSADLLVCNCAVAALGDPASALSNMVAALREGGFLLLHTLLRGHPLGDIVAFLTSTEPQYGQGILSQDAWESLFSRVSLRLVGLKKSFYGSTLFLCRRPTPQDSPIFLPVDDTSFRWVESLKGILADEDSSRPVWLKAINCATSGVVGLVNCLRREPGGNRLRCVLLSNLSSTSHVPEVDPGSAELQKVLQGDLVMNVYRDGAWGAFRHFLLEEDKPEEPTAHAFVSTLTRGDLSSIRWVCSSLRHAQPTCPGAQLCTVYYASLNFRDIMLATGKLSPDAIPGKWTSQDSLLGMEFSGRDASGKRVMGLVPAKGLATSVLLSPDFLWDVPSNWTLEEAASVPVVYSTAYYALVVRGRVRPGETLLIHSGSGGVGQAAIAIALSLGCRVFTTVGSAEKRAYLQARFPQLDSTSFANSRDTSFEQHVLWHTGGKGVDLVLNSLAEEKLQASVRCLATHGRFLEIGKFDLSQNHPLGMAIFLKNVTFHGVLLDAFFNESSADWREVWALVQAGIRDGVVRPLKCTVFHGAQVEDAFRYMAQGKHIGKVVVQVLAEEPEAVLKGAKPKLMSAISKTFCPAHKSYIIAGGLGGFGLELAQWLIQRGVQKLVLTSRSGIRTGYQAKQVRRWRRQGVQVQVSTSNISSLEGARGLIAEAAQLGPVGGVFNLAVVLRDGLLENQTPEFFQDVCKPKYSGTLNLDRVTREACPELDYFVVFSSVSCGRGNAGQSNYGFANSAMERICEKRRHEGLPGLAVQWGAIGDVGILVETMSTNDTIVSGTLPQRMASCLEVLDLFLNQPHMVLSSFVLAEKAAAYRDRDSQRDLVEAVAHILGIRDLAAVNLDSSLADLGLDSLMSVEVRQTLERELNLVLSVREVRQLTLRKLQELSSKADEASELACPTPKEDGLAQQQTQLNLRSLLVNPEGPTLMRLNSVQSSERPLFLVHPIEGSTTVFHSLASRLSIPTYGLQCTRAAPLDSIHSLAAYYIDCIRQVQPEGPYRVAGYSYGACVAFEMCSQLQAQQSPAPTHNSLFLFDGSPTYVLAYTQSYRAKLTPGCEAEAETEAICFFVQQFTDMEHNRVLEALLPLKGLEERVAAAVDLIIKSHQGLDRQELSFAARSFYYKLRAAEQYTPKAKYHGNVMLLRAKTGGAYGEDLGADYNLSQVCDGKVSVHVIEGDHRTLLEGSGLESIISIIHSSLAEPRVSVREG
Gamma-aminobutyric acid receptor subunit alpha-1 (Rattus norvegicus), sequence (P62813 whole entry): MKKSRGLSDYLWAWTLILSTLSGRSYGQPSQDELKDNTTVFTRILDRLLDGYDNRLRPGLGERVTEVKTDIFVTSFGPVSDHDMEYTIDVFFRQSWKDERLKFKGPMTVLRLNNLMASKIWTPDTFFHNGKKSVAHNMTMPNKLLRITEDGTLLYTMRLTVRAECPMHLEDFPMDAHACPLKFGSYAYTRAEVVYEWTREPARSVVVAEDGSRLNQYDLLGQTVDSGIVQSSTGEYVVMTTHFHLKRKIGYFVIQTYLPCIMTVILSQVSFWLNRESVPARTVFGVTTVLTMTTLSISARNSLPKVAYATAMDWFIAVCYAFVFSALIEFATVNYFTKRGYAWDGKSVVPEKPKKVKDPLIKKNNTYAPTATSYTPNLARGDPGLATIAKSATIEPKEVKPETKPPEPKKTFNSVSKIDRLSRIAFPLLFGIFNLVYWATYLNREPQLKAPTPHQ
Histamine H1 receptor (Homo sapiens), sequence (P35367 whole entry): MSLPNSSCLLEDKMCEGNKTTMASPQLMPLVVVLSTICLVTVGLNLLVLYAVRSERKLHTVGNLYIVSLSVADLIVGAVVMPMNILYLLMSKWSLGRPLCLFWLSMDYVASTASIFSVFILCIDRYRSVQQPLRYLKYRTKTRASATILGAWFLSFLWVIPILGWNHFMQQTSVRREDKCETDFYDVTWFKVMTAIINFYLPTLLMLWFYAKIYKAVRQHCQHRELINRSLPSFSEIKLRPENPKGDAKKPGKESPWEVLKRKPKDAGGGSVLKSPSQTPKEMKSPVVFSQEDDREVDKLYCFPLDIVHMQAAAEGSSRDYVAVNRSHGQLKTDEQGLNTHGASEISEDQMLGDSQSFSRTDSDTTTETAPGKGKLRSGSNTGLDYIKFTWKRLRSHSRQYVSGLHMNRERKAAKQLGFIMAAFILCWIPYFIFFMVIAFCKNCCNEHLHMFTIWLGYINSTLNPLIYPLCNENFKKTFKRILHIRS
Prostaglandin E2 receptor EP4 subtype (Homo sapiens), sequence (P35408 whole entry): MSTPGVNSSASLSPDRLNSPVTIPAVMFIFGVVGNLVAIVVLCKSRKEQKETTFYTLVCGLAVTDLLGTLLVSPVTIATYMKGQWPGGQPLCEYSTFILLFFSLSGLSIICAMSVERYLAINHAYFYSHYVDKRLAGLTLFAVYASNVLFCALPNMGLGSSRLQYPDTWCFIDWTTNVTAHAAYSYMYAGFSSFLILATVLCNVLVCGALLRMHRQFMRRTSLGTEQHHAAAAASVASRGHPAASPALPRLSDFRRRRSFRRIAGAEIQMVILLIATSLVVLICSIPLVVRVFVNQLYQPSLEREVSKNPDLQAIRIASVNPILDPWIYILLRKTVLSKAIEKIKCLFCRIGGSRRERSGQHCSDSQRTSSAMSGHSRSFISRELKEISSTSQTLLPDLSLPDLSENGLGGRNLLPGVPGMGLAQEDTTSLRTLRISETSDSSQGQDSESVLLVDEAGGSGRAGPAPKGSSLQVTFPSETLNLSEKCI
Beta-2 adrenergic receptor (Homo sapiens), sequence (P07550 whole entry, looked up): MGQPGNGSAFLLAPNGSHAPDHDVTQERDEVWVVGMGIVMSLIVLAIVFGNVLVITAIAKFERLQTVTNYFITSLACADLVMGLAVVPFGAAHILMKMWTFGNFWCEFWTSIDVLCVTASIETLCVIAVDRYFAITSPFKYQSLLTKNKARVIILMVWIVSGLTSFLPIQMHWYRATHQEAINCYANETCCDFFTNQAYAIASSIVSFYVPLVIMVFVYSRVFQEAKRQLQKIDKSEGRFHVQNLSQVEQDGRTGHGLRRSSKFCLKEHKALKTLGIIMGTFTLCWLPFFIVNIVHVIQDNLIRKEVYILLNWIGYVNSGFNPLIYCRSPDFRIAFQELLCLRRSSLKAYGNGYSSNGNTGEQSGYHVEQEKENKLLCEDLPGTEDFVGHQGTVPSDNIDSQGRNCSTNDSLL
Beta-1 adrenergic receptor (Homo sapiens), sequence (P08588 whole entry, looked up): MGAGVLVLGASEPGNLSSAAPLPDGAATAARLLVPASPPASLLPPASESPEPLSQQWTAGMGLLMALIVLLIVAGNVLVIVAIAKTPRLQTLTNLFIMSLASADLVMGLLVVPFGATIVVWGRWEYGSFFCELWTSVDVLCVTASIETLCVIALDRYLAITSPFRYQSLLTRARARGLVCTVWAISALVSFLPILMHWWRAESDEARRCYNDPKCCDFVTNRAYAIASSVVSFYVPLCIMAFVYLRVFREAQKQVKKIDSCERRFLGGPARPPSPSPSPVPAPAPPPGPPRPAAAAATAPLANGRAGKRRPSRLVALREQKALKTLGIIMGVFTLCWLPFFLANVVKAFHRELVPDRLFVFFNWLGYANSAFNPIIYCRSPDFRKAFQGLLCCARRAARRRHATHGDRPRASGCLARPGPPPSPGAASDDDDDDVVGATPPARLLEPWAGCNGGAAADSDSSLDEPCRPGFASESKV

## CCC(=O)N[C@H]1CC[C@@H](C(=O)N(C)c2ccc(-c3nc4ccccc4o3)cc2)C1 [BI 99179]
[1]
  IC50: 180 nM (active)
[2]
  residual activity: 107%
[3]
  residual activity: 90%
[4]
  residual activity: 83%
[5]
  residual activity: 96%
[6]
  residual activity: 96%
[7]
  residual activity: 100%
[8]
  residual activity: 93%
[9]
  residual activity: 91%
[10]
  residual activity: 96%
[11]
  residual activity: 92%
[12]
  residual activity: 87%
[13]
  residual activity: 90%
[14]
  residual activity: 87%
[15]
  inhibition: 25.7%
[16]
  inhibition: -6.53%
[17]
  inhibition: 3.53%

## CCC(=O)N[C@@H]1CC[C@H](C(=O)N(C)c2ccc(-c3nc4ccccc4o3)cc2)C1 [BI 99990]
[18]
  Ki: 1630 nM
[19]
  Ki: 396 nM
[20]
  IC50: > 3000 nM (not active)
[21]
  residual activity: 87%
[22]
  residual activity: 100%
[23]
  residual activity: 100%
[24]
  residual activity: 100%
[25]
  residual activity: 96%
[26]
  residual activity: 75%
[27]
  residual activity: 100%
[28]
  inhibition: -0.0188%
